Patent US9816991B2, “Diagnostic peptides for lyme disease” (Biopeptides Corp., priority 2012, dated 2017)

System: human IgG+IgM serum antibodies
Assay: OppA2 peptide ELISA
Type: binding
Settings: for binding of antibodies present in RPR+ serum: 26 RPR+ sera
Procedure: 96-well plates (Nunc Maxisorp) were coated with 10 μg/mL peptide, diluted in 0.1M carbonate-bicarbonate buffer, pH 9.4 (50 μL per well), for 1 hour at room temperature. Blocking buffer 1% bovine serum albumin (BSA) in PBS was added to the wells (250 μL/well) and incubated overnight at 4° C. Wells were washed three times with PBS containing 0.05% Tween 20 (PBS-T) and incubated for 2 hours at room temperature with human samples diluted 1:100 in PBS-1% BSA. Each plate included samples from patients and healthy donors, and all samples were assayed in triplicate. After washing, wells were incubated for 1 hour at RT with a 1:15,000 dilution of HRP-conjugated secondary antibody against human IgG+IgM. Reactions were developed for 30 minutes with 3,3′,5,5′-tetramethylbenzidine (TMB) in the dark at room temperature and the reaction was stopped by the addition of 2N H2SO4. Optical densities were determined at 450 nm and 570 nm wavelengths using a SpectraMax Plus plate reader (Molecular Devices). The cutoff for seropositivity was defined as the mean optical density (OD) of the healthy control samples plus two standard deviations (SD).
OppA2 peptides react specifically with antibodies from Lyme disease patients. The nine peptides were further screened by ELISA using serum or plasma obtained from 104 patients with physician-diagnosed Lyme disease. All patients presented with one or more EM. Control sera was obtained from 45 healthy donors residing in a region of the United States non-endemic for LD, New Mexico. All peptides were incubated with serum in triplicate, and results were validated in two independent experiments. For each peptide, the threshold value for immunoreactivity was defined as the mean optical density (OD) value plus two standard deviations (SD) of results obtained using healthy donor sera. […] OppA2 (191-225) and OppA2 (381-400) were detected by only 2.2% and 6.7%, respectively, of the healthy donor samples.

[1] = Control sera, Healthy blood donors
[2] = Lyme Disease sera, Blood culture negative (localized)
[3] = Lyme Disease sera, Blood culture positive (disseminated)
[4] = Lyme Disease sera, EM positive (1st visit)
[5] = Lyme Disease sera, Elisa Positive

Sequence | binding of antibodies present in RPR+ serum (in words) | Antibody positivity, % positive [1] [%] | Antibody positivity, N° positive/Total [1] | Antibody positivity, % positive (Control sera, RA) [%] | Antibody positivity, N° positive/Total (Control sera, RA) | Antibody positivity, % positive (Control sera, Syphilis (RPR+)) [%] | Antibody positivity, N° positive/Total (Control sera, Syphilis (RPR+)) | Antibody positivity, % positive [2] [%] | Antibody positivity, N° positive/Total [2] | Antibody positivity, % positive [3] [%] | Antibody positivity, N° positive/Total [3] | Antibody positivity, % positive [4] | Antibody positivity, N° positive/Total [4] | Antibody positivity, % positive (Lyme Disease sera, EM positive (1st visit), listed as OppA2 (286-310)) [%] | Antibody positivity, % positive [5] | Antibody positivity, N° positive/Total [5] | Antibody positivity, % positive (Lyme Disease sera, Wisconsin) | Antibody positivity, N° positive/Total (Lyme Disease sera, Wisconsin) | reactivity of Lyme disease patient sera compared with sera from healthy donors (in words) | Antibody positivity, % positive (Lyme Disease sera, EM positive (1st visit), listed as OppA2 (276-300)) [%]
IYFYSFNTHIKPLDNVKIRKALTLA (listed as Borrelia sp.) [OppA (286-310)] | did not bind | 4.4 | 2/45 | 0 | 0/30 | 0 | 0/26 | 0 | 0/13 | 0 | 0/10 | (43.6) % | 44/104 | 43.6 | (22.9) % | 8/35 | (78.3) % | 36/46 | – | –
APIYIYGNSYLFRND (listed as Borrelia burgdorferi) [OppA2 (495-505)] | – | – | – | – | – | – | – | – | – | – | – | – | – | – | – | – | – | – | comparable to that of sera from healthy donors | –
SDYYSSAVNAIYFYAFNTHIKPLDN (listed as Borrelia sp.) [OppA (276-300)] | did not bind | 4.4 | 2/45 | 0 | 0/30 | 0 | 0/26 | 0 | 0/13 | 0 | 0/10 | (36.6) % | 34/104 | – | (22.9) % | 8/35 | (56.5) % | 26/46 | – | 36.6
